Test system: growth hormone
Assay: In vivo growth hormone release inhibition in Nembutal-treated rats, plasma growth hormone by radioimmunoassay
Conditions: rats 200-250 g, Nembutal 50 mg/kg i.p.; after 5 min octadecapeptide 1000 micrograms/kg s.c.; blood sampled 15 min after administration; control 236 ± 30; p<0.01
Procedure: The in vivo activity of the octadecapeptides of this invention was established with (CH3 CO-D-Ala-Gly-Gly-L-Tyr-L-Ala)^1 -Somatostatin as a representative member of the octadecapeptides of this invention by injecting Nembutal intraperitoneally into rats weighing between 200 and 250 grams in an amount of 50 milligrams per kilogram body weight. After five minutes, the octadecapeptide was administered to the rats, subcutaneously, at a dose of 1000 micrograms per kilogram body weight. The rats blood was sampled 15 minutes after administration of the octadecapeptide and the amount of growth hormone present in the plasma was determined by radioimmunoassay. The octadecapeptide afforded a blood plasma concentration of growth hormone in the test animals of 74 ± 16 nanograms per milliliter as opposed to the concentration of growth hormone in the control animals of 236 ± 30 nanograms per milliliter, at a statistical certainty of p<0.01.

CC(=O)N[C@H](C)C(=O)NCC(=O)NCC(=O)N[C@@H](Cc1ccc(O)cc1)C(=O)N[C@@H](C)C(=O)NCC(=O)N[C@H]1CSSC[C@@H](C(=O)O)NC(=O)[C@H](CO)NC(=O)[C@H]([C@@H](C)O)NC(=O)[C@H](Cc2ccccc2)NC(=O)[C@H]([C@@H](C)O)NC(=O)[C@H](CCCCN)NC(=O)[C@H](Cc2c[nH]c3ccccc23)NC(=O)[C@H](Cc2ccccc2)NC(=O)[C@H](Cc2ccccc2)NC(=O)[C@H](CC(N)=O)NC(=O)[C@H](CCCCN)NC1=O [N-α-Acetyl-D-alanyl-glycyl-glycyl-L-tyrosyl-L-alanyl-glycyl-L-cysteinyl-L-lysyl-L-asparaginyl-L-phenylalanyl-L-phenylalanyl-L-tryptophyl-L-lysyl-L-threonyl-L-phenylalanyl-L-threonyl-L-seryl-L-cysteine (7-18 disulfide) diacetate]
blood plasma concentration of growth hormone: 74 ± 16 nanograms per milliliter

Source: US3998795A, “(Acyl-D-α-amino acid-gly-gly-tyr-ala)^1 -somatostatin” (American Home Products Corporation, priority 1975, dated 1976)
